Results published in US6429208B1, “Methods and compositions for restoring impaired cellular immune function” (Regents of the University of California, priority 1992, dated 2002).

How the values were obtained:
Type in all cases: cell-based, human
[1] = tested on: PBMC; test: Proliferative response to PHA after preincubation with HIV components; details: HIV components 1 hour, wash, ddAdo 10 minutes, 5 of 5 experiments, FIG. 7
Protocol: (§1) Proliferative assays were performed as previously described (see, for example, Hofmann, B., et al., Cell Immunol (1989) 121:336-48. Briefly, one microcurie ^3H-thymidine was added to cultures 72 hours after stimulation, and after further 24 hours, all cultures were harvested on glass fiber filters with an automatic harvesting machine (Skatron, Lierbyen, Norway), and the incorporated radioactivity was measured in a liquid scintillation counter (Beckman LS 1800) after an addition of 1.5 ml scintillation fluid.
HIV components were added to PBMC for 1 hour followed by washing and then treating the cells with dideoxyadenosine (ddAdo) for 10 minutes, again followed by washing. Under these circumstances, the proliferative response to PHA could be restored (FIG. 7).

[2] = tested on: PBMC from HIV seronegative controls; test: Proliferative response to Candida albicans, HIV seronegative controls; details: seven HIV seronegative controls; without ddAdo 6600 (±2000)
Protocol: (§2) Proliferative assays were done in triplicates of 50,000 PBMC in 200 μL RPMI with 10% FCS and 8 μg/ml of Candida albicans. ddAdo was added in two-fold dilutions; tritiated thymidine was added at day 5 and cells were harvested at day 6. Concentrations of ddAdo from 12.5 to 50 ng/ml gave the highest responses. […] Ratio 1:12 gave 48% (±12) without and 76% (±9) with ddAdo during priming. Ratio 1:25 gave 61% (±15) without and 77% (±9) with ddAdo.

[3] = tested on: PBMC from HIV seropositive subjects; test: Intracellular cAMP in PBMC from HIV seropositive subjects
Protocol: The compound 2′,5′ dideoxyadenosine (ddAdo) inhibits adenylate cyclase, the enzyme responsible for the generation of cAMP, by competition for the “P”-binding site (Johnson, J Biochem (1990) 265:11595-11600). […] In one such experiment (FIG. 9A), the intracellular cAMP level decreased to normal levels within 4 hours and remained at this level when tested after 20 hours. The effect of ddAdo was compared with two other adenylate cyclase inhibitors which are naturally occurring adenosine phosphates. When used in equal concentrations, the three inhibitors gave similar reductions in intracellular CAMP levels. For example, when added in 10 ng/ml for 10 min, ddAdo decreased the CAMP levels from 5.3 pmol/10^6 PBMC to 3.6; 3′ AMP to 3.5; and 2′,3′deoxy-AMP reduced the level to 3.2 pmol/10^6 PBMC.
cAMP was determined using a commercial scintillation proximity RIA (Amersham, Arlington Heights, Ill.) following the manufacturer's protocol. PKA activity was determined using a kit from Gibco (Grand Island, N.Y.) and the manufacturer's protocol. For the cAMP assay, cells were lysed and sonicated in assay buffer (provided with the kits). Proliferative assays were performed as described above.
Further purification was achieved by reverse phase chromatography. 3 ml of above solution was applied on C18 Sep-Pak cartridge (Waters) equilibrated with water+0.1% TFA. The column was washed with H2O-TFA until absorbance at 280nm reached baseline. Bound material was eluted from the column by stepwise elution with H2O-acetonitrile-TFA mixtures. There were three peaks on elution curve at 20%, 40% and 70% acetonitrile. The effluent from the above step was rechromatographed again on C18 cartridge and yielded additional quantities of the three products. […] Fraction 2 was added in various PBS dilutions to lymphocytes from HIV seropositive subjects. cAMP was then measured on lysates of these cells after 1 hour.

[4] = tested on: Raji cells; test: Cytotoxic T-cell 51Cr-release assay against Raji cells
Protocol: Cytotoxic T-cells from HIV seropositive subjects “regained” their normal ability to lyse allogenic tumor cell line in the presence of ddAdo as shown in FIG. 10B. In this experiment, ddAdo was added either during the six days of generation/priming (middle column of FIG. 10B) or during the three hour cytotoxic assay (right column of FIG. 10B). The cytotoxic assay used was a standard assay. Briefly, 10^6 PBMC were primed and irradiated (3000 Rad) Raji B-lymphoblastoid cells (8:1 ratio) for six days and added to triplicates of ^51Cr-labeled target Raji cells in effector target ratios from 6.25 to 50. ^51Cr released to the supernatant was measured in a gamma counter. Percentage of specific ^51Cr-release was calculated as 100×(released by PBMC−spontaneous release)/(maximum release with Triton X−spontaneous release). ddAdo was added in concentrations of 10 or 100 ng/ml either during priming or lysis.

[5] = tested on: PBMC from an HIV seropositive subject; test: Proliferative response to PHA of PBMC from HIV seropositive subjects
Protocol: as §1

[6] = tested on: PBMC from HIV seropositive subjects; test: Proliferative response to Candida albicans, PBMC from HIV seropositive subjects
Protocol: as §2

[7] = tested on: T lymphocyte; test: T lymphocyte proliferative response to HIV-specific protein (p24) in HIV seropositive subjects; details: FIG. 11
Excerpt: FIG. 11 is a graph showing T lymphocyte proliferative response in HIV seropositive subjects to a specific recall antigen (Candida albicans) and to an HIV-specific protein (p24) before and after ddAdo treatment.

Structure (SMILES): C[C@H]1O[C@@H](n2cnc3c(N)ncnc32)C[C@@H]1O [ddAdo, 2′,5′ dideoxyadenosine]
- Proliferative response to PHA [1]: restored
- Responses to Candida albicans [2]: 7600 (±1.9) cpm
- cAMP levels ([3]; 10 ng/ml for 10 min, decreased from 5.3): 3.6 pmol/10^6 PBMC
- Time for intracellular cAMP level to decrease to normal levels ([3]; added for 10 minutes followed by washing, remained at this level after 20 hours, FIG. 9A): ≤ 4 h
- Ability of cytotoxic T-cells from HIV seropositive subjects to lyse allogenic tumor cell line ([4]; 10 or 100 ng/ml during priming or lysis, FIG. 10B): regained
- Effect on target lysis by HIV seronegative cells ([4]; HIV seronegative subjects): minimal effect
- Target lysis (specific ^51Cr-release) ([4]; Ratio 1:12, ddAdo during priming, without 48% (±12)): 76%
- Target lysis (specific ^51Cr-release) ([4]; Ratio 1:25, without 61% (±15)): 77%
- Proliferative response to PHA [5]: improved
- Responses to Candida albicans (mean and SEM) ([6]; 14 HIV seropositive subjects, increased from 2900 (±1300)): 6100 (±1600) cpm
- Responses to Candida albicans ([6]; some HIV seropositive subjects, increased from less than 1000 cpm, FIG. 10A): about 10,000 cpm
- T lymphocyte responses directed against HIV [7]: restores/increases
